Literature values in patent publication US20020044913A1, “Cosmetics to support skin metabolism” (priority 2000, published 2002).
Read-outs that look alike come from different tables or passages of the source.

What was measured:
[1] = tested on: skeletal muscle; conditions: older individuals (40-73), 20 g/day, one week
[2] = tested on: carnitine-acetyl-carnitine exchange across the inner mitochondrial membrane
[3] = tested on: aged rats; conditions: supplementation
[4] = tested on: human lymphocytes
[5] = not given; remark: listed apart in the source
[6] = tested on: senescent myocardium (human atrial tissue and rats)
[7] = tested on: apoptosis; conditions: through its action in the mitochondria
[8] = daily supplements of up to 200 mg for 6-12 months and 100 mg daily for up to 6 y
[9] = tested on: oxidant production; conditions: carnitine supplementation

Question: For `CN(CC(=O)O)C(=N)N` [creatine], which safety (1.5 g-25 g/day for period of at least a year) is on record?
Answer: safe

Question: What about the adverse effects (athletes, doses up to 75 grams a day for years) of the same compound?
Answer: without known adverse effects, aside from weight gain

Question: And the “skeletal muscle strength and endurance” value [1]?
Answer: Increased skeletal muscle strength and endurance

Question: For `CC(=O)O[C@H](CC(=O)[O-])C[N+](C)(C)C` [acetyl-L-carnitine], which “age-associated decrease in mtDNA transcription” value [2] is on record?
Answer: reverse

Question: And the “age-related decrease in cardiolipin” value [2]?
Answer: reverse the age-related decrease in cardiolipin

Question: And the “age-related decrease of carnitine-acetyl-carnitine exchange activity” value [2]?
Answer: slow or reverse this age-related dysfunction

Question: And the decreased membrane potential [2]?
Answer: reverse

Question: Which “age-related decline in mitochondrial membrane potential” value [3] does the source give for `O=C(O)CCCC[C@@H]1CCSS1` [R-α-lipoic acid] here?
Answer: restore the age-related decline in mitochondrial membrane potential

Question: What about the “age-related decrease in oxygen consumption” value [3] of the same compound?
Answer: reverse the age-related decrease in oxygen consumption

Question: And the “age-related increase in oxidants” value [3]?
Answer: significantly lower

Question: What about the “glutathione and ascorbic acid levels” value [3] of the same compound?
Answer: restore glutathione and ascorbic acid levels to youthful levels

Question: What about the “ambulatory activity of aged rats” value ([3]; aged rats) of the same compound?
Answer: triple

Question: Which “oxidative damage to DNA” value [4] does the source give for `COc1c(O)c(C)c(C/C=C(\C)CC/C=C(\C)CC/C=C(\C)CC/C=C(\C)CC/C=C(\C)CC/C=C(\C)CC/C=C(\C)CC/C=C(\C)CC/C=C(\C)CCC=C(C)C)c(O)c1OC` [ubiquinol-10] here?
Answer: appears to protect human lymphocytes from oxidative damage to DNA

Question: Which results are given for `COC1=C(OC)C(=O)C(C/C=C(\C)CC/C=C(\C)CC/C=C(\C)CC/C=C(\C)CC/C=C(\C)CC/C=C(\C)CC/C=C(\C)CC/C=C(\C)CC/C=C(\C)CCC=C(C)C)=C(C)C1=O` [Q10, Coenzyme Q10]?
Answer: benefit of supplementation ([5]; older Finnish men, 100 mg/day): obtained benefit; clinical improvement ([5]; woman deficient in Q10, 150 mg/kg): rapidly improved; tolerance of senescent myocardium to aerobic and ischemic stress ([6]; human atrial tissue and rats): improves the tolerance; recovery of function in older hearts ([6]; older vs younger hearts): corrected the age-specific diminished recovery of function in older hearts; programmed cell death (apoptosis) [7]: appears to block programmed cell death; adverse effects [8]: No important adverse effects

Question: Which “age-associated decrease in mtDNA transcription” value [2] does the source give for `C[N+](C)(C)C[C@H](O)CC(=O)[O-]` [L-carnitine] here?
Answer: reverse

Question: What about the “age-related decrease in cardiolipin” value [2] of the same compound?
Answer: reverse the age-related decrease in cardiolipin

Question: And the “age-related decrease of carnitine-acetyl-carnitine exchange activity” value [2]?
Answer: slow or reverse this age-related dysfunction

Question: What about the decreased membrane potential [2] of the same compound?
Answer: reverse

Question: With `C[N+](C)(C)CC(O)CC(=O)[O-]` (stereo not shown) [carnitine] as the compound, how does the cell antioxidants [9] read?
Answer: decreased cell antioxidants markedly

Question: What about the “increase in oxidant production” value [9] of the same compound?
Answer: 30%
